Laboratory results: patent US9642869B2, “Boronic acid derivatives and therapeutic uses thereof” (Rempex Pharmaceuticals, Inc., priority 2013, dated 2017)
pKi: −log10 of the molar value.

Tests used:
SHV-5 ec308 [1] = experiment: Aztreonam potentiation (MPC@4); type: cell-based; details: minimum BLI concentration inhibiting growth with 4 μg/mL aztreonam
KPC-2 KP1004 = experiment: Aztreonam potentiation (MPC@4); type: cell-based; details: minimum BLI concentration inhibiting growth with 4 μg/mL aztreonam
ECL1002 [2] = experiment: Aztreonam potentiation (MPC@4); type: cell-based; details: minimum BLI concentration inhibiting growth with 4 μg/mL aztreonam
CTX-M-14 KP1005 = type: cell-based
CTX-M-15 KP1009 = type: cell-based
SHV-5 ec308 [3] = type: cell-based; details: minimum BLI concentration inhibiting growth with tigemonam at 4 μg/mL
ECL1002 [4] = type: cell-based; details: minimum BLI concentration inhibiting growth with tigemonam at 4 μg/mL
KP1004 KPC-2 = experiment: Biapenem potentiation (MPC@1); type: cell-based; details: minimum BLI concentration inhibiting growth with 1 μg/mL biapenem
Method: (§1) Biapenem was present in the test medium at 1 μg/mL. […] Table 3 summarizes the BLI potency of biapenem potentiation (MPC@1) for two strains overexpressing class A (KPC) and class D (OXA-48) carbapenemases. Biapenem MIC for each strain is also shown.

OXA-48 KP1086 = experiment: Biapenem potentiation (MPC@1); type: cell-based; details: minimum BLI concentration inhibiting growth with 1 μg/mL biapenem
Method: as §1

SHV-12 = SHV-12 (Klebsiella pneumoniae, UniProt P0AD64, E235K/G234S/L31Q); experiment: Inhibition of nitrocefin cleavage by purified enzyme (Ki); type: biochemical; details: nitrocefin reporter substrate, 10 min preincubation; read-out: Ki (SHV-12, NCF)
Method: Purified enzymes were mixed with various concentrations of inhibitors in reaction buffer and incubated for 10 min at room temperature. Nitrocefin was added and substrate cleavage profiles were recorded at 490 nm every 10 sec for 10 min.

Sequence of SHV-12 (P0AD64 22-286 L31Q/G234S/E235K): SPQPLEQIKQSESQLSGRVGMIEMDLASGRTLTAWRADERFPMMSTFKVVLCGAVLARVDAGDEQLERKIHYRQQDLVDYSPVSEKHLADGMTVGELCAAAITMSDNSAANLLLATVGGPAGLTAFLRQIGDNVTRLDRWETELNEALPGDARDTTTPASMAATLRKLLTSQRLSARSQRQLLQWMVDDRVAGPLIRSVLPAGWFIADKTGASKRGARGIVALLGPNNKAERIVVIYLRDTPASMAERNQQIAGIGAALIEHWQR

Compound | AZT MPC4 SHV-5 ec308 (SHV-5 ec308 [1]) | AZT MPC4 KPC-2 KP1004 (KPC-2 KP1004) | AZT MPC4 ECL1002 (ECL1002 [2]) | TIG MPC4 CTX-M-14 KP1005 (CTX-M-14 KP1005) | TIG MPC4 CTX-M-15 KP1009 (CTX-M-15 KP1009) | TIG MPC4 SHV-5 ec308 (SHV-5 ec308 [3]) | TIG MPC4 ECL1002 (ECL1002 [4]) | BPM MPC1 KP1004 KPC-2 (KP1004 KPC-2) | BPM MPC1 OXA-48 KP1086 (OXA-48 KP1086) | pKi (SHV-12)
O=C(COCc1ccccc1)N[C@H]1Cc2cccc(C(=O)O)c2OB1O [CPD B, reference compound] | Y (MIC of 1 μg/mL to 10 μg/mL) | Z (MIC of greater than 10 μg/mL) | Z (MIC of greater than 10 μg/mL) | Z (key: X: MIC of less than 1 μg/mL; Y: MIC of 1 μg/mL to 10 μg/mL; Z: MIC of greater than 10 μg/mL) | Z (key: X: MIC of less than 1 μg/mL; Y: MIC of 1 μg/mL to 10 μg/mL; Z: MIC of greater than 10 μg/mL) | Y (MIC of 1 μg/mL to 10 μg/mL) | Y (MIC of 1 μg/mL to 10 μg/mL) | X (MIC of less than 1 μg/mL) | Z (MIC of greater than 10 μg/mL) | > 9.00
O=C(N[C@H]1Cc2cccc(C(=O)O)c2OB1O)c1cncnc1 [Compound 18, (R)-2-hydroxy-3-(pyrimidine-5-carboxamido)-3,4-dihydro-2H-benzo[e][1,2]oxaborinine-8-carboxylic acid] | Y (MIC of 1 μg/mL to 10 μg/mL) | Y (MIC of 1 μg/mL to 10 μg/mL) | Y (MIC of 1 μg/mL to 10 μg/mL) | Y (key: X: MIC of less than 1 μg/mL; Y: MIC of 1 μg/mL to 10 μg/mL; Z: MIC of greater than 10 μg/mL) | Y (key: X: MIC of less than 1 μg/mL; Y: MIC of 1 μg/mL to 10 μg/mL; Z: MIC of greater than 10 μg/mL) | Y (MIC of 1 μg/mL to 10 μg/mL) | Y (MIC of 1 μg/mL to 10 μg/mL) | Y (MIC of 1 μg/mL to 10 μg/mL) | Y (MIC of 1 μg/mL to 10 μg/mL) | > 9.00
O=C(N[C@H]1Cc2cccc(C(=O)O)c2OB1O)c1cncs1 [Compound 15, (R)-2-hydroxy-3-(thiazole-5-carboxamido)-3,4-dihydro-2H-benzo[e][1,2]oxaborinine-8-carboxylic acid] | X (MIC of less than 1 μg/mL) | Y (MIC of 1 μg/mL to 10 μg/mL) | Y (MIC of 1 μg/mL to 10 μg/mL) | Y (key: X: MIC of less than 1 μg/mL; Y: MIC of 1 μg/mL to 10 μg/mL; Z: MIC of greater than 10 μg/mL) | Y (key: X: MIC of less than 1 μg/mL; Y: MIC of 1 μg/mL to 10 μg/mL; Z: MIC of greater than 10 μg/mL) | Y (MIC of 1 μg/mL to 10 μg/mL) | Y (MIC of 1 μg/mL to 10 μg/mL) | X (MIC of less than 1 μg/mL) | Y (MIC of 1 μg/mL to 10 μg/mL) | > 9.00
CSC(=O)N[C@H]1Cc2cccc(C(=O)O)c2OB1O [Compound 11, (R)-2-hydroxy-3-(methylthiocarbonylamino)-3,4-dihydro-2H-benzo[e][1,2]oxaborinine-8-carboxylic acid] | X (MIC of less than 1 μg/mL) | Y (MIC of 1 μg/mL to 10 μg/mL) | Y (MIC of 1 μg/mL to 10 μg/mL) | Y (key: X: MIC of less than 1 μg/mL; Y: MIC of 1 μg/mL to 10 μg/mL; Z: MIC of greater than 10 μg/mL) | Y (key: X: MIC of less than 1 μg/mL; Y: MIC of 1 μg/mL to 10 μg/mL; Z: MIC of greater than 10 μg/mL) | Y (MIC of 1 μg/mL to 10 μg/mL) | Y (MIC of 1 μg/mL to 10 μg/mL) | X (MIC of less than 1 μg/mL) | Y (MIC of 1 μg/mL to 10 μg/mL) | > 9.00
NC(=O)N[C@H]1Cc2cccc(C(=O)O)c2OB1O [Compound 6, (R)-2-hydroxy-3-ureido-3,4-dihydro-2H-benzo[e][1,2]oxaborinine-8-carboxylic acid] | Y (MIC of 1 μg/mL to 10 μg/mL) | X (MIC of less than 1 μg/mL) | Z (MIC of greater than 10 μg/mL) | Z (key: X: MIC of less than 1 μg/mL; Y: MIC of 1 μg/mL to 10 μg/mL; Z: MIC of greater than 10 μg/mL) | Y (key: X: MIC of less than 1 μg/mL; Y: MIC of 1 μg/mL to 10 μg/mL; Z: MIC of greater than 10 μg/mL) | Z (MIC of greater than 10 μg/mL) | Y (MIC of 1 μg/mL to 10 μg/mL) | X (MIC of less than 1 μg/mL) | Y (MIC of 1 μg/mL to 10 μg/mL) | 8.00 to 9.00
O=C(N[C@H]1Cc2cccc(C(=O)O)c2OB1O)c1cncc(F)c1 [Compound 14, (R)-3-(5-fluoronicotinamido)-2-hydroxy-3,4-dihydro-2H-benzo[e][1,2]oxaborinine-8-carboxylic acid] | Y (MIC of 1 μg/mL to 10 μg/mL) | Y (MIC of 1 μg/mL to 10 μg/mL) | Y (MIC of 1 μg/mL to 10 μg/mL) | Y (key: X: MIC of less than 1 μg/mL; Y: MIC of 1 μg/mL to 10 μg/mL; Z: MIC of greater than 10 μg/mL) | Y (key: X: MIC of less than 1 μg/mL; Y: MIC of 1 μg/mL to 10 μg/mL; Z: MIC of greater than 10 μg/mL) | Y (MIC of 1 μg/mL to 10 μg/mL) | Y (MIC of 1 μg/mL to 10 μg/mL) | X (MIC of less than 1 μg/mL) | Y (MIC of 1 μg/mL to 10 μg/mL) | > 9.00
Cn1nnnc1SCC(=O)N[C@H]1Cc2cccc(C(=O)O)c2OB1O [Compound 2, (R)-2-hydroxy-3-(2-(1-methyl-1H-tetrazol-5-ylthio)acetamido)-3,4-dihydro-2H-benzo[e][1,2]oxaborinine-8-carboxylic acid] | X (MIC of less than 1 μg/mL) | Y (MIC of 1 μg/mL to 10 μg/mL) | Y (MIC of 1 μg/mL to 10 μg/mL) | X (key: X: MIC of less than 1 μg/mL; Y: MIC of 1 μg/mL to 10 μg/mL; Z: MIC of greater than 10 μg/mL) | Y (key: X: MIC of less than 1 μg/mL; Y: MIC of 1 μg/mL to 10 μg/mL; Z: MIC of greater than 10 μg/mL) | X (MIC of less than 1 μg/mL) | X (MIC of less than 1 μg/mL) | X (MIC of less than 1 μg/mL) | Y (MIC of 1 μg/mL to 10 μg/mL) | > 9.00
CN(C)C(=O)C(=O)N[C@H]1Cc2cccc(C(=O)O)c2OB1O [Compound 9, (R)-3-(2-(dimethylamino)-2-oxoacetamido)-2-hydroxy-3,4-dihydro-2H-benzo[e][1,2]oxaborinine-8-carboxylic acid] | X (MIC of less than 1 μg/mL) | Y (MIC of 1 μg/mL to 10 μg/mL) | Y (MIC of 1 μg/mL to 10 μg/mL) | Y (key: X: MIC of less than 1 μg/mL; Y: MIC of 1 μg/mL to 10 μg/mL; Z: MIC of greater than 10 μg/mL) | Y (key: X: MIC of less than 1 μg/mL; Y: MIC of 1 μg/mL to 10 μg/mL; Z: MIC of greater than 10 μg/mL) | Y (MIC of 1 μg/mL to 10 μg/mL) | Y (MIC of 1 μg/mL to 10 μg/mL) | X (MIC of less than 1 μg/mL) | Z (MIC of greater than 10 μg/mL) | 
